Publication PMC9635984 (Bioorganic & medicinal chemistry letters, 2022)

Test system: MDA-MB-231 breast cancer cells
Experiment: In vitro antitumor activity against breast cancer cell line MDA-MB-231
Assay type: cell-based
Settings: Homo sapiens, MDA-MB-231, read-out: IC50 (μM) MDA-MB-231

In the case of Cn1c(CCCC(=O)O)nc2cc(N(CCCl)CCCl)ccc21 [Bendamustiune, bendamustine], the IC50 is reported as 13.3 µM.
